Key:
Test in all cases: relative viability (nuclei count vs DMSO), 5 days (fraction); higher = more cells survive
[1] = compound: CN1C=C(C2=CC=CC=C21)/C=C\3/C4=C(C=CC=N4)NC3=O + CC(C)C[C@H](NC(=O)[C@H](Cc1ccccc1)NC(=O)c1cnccn1)B(O)O [Bortezomib] (partner 0.002 µM)
Procedure, shortened: (§1)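 For relative viability, nuclei counts in treated wells were divided by those in vehicle wells. Lung cancer cell lines had been pin-tool dosed in 1536-well plates the day after seeding and cultured for 5 days, then fixed and stained in one step (final 0.05% Triton X-100, 1% formaldehyde, 1 ug/ml Hoechst) and imaged at 4×. Doses were one drug alone or a fixed anchor-drug dose plus five library-drug doses (not always all listed) in √10 steps, and values are duplicate-plate medians.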

Trametinib + Pemetrexed = compound: CC(=O)Nc1cccc(-n2c(=O)n(C3CC3)c(=O)c3c(Nc4ccc(I)cc4F)n(C)c(=O)c(C)c32)c1 [Trametinib] + Nc1nc2[nH]cc(CCc3ccc(C(=O)N[C@@H](CCC(=O)O)C(=O)O)cc3)c2c(=O)[nH]1 [Pemetrexed] (partner 0.2 µM)
Procedure, shortened: as §1

[2] = compound: CN1C=C(C2=CC=CC=C21)/C=C\3/C4=C(C=CC=N4)NC3=O + CS(=O)(=O)N1CCN(Cc2cc3nc(-c4cccc5[nH]ncc45)nc(N4CCOCC4)c3s2)CC1 [Pictilisib] (partner 1 µM)
Procedure, shortened: as §1

[3] = compound: CN1C=C(C2=CC=CC=C21)/C=C\3/C4=C(C=CC=N4)NC3=O + CC(=O)c1c(C)c2cnc(Nc3ccc(N4CCNCC4)cn3)nc2n(C2CCCC2)c1=O [Palbociclib] (partner 0.5 µM)
Procedure, shortened: as §1

Cell Line	relative viability ([1]; first compound 0.02 µM)	relative viability ([1]; first compound 0.06325 µM)	relative viability ([1]; first compound 0.2 µM)	relative viability ([1]; first compound 0.6325 µM)	relative viability ([1]; first compound 2 µM)	relative viability (Trametinib + Pemetrexed; first compound 0.0025 µM)	relative viability (Trametinib + Pemetrexed; first compound 0.007906 µM)	relative viability (Trametinib + Pemetrexed; first compound 0.025 µM)	relative viability (Trametinib + Pemetrexed; first compound 0.07906 µM)	relative viability (Trametinib + Pemetrexed; first compound 0.25 µM)	relative viability ([2]; first compound 0.02 µM)	relative viability ([2]; first compound 0.06325 µM)	relative viability ([2]; first compound 0.2 µM)	relative viability ([2]; first compound 0.6325 µM)	relative viability ([2]; first compound 2 µM)	relative viability ([3]; first compound 0.02 µM)	relative viability ([3]; first compound 0.06325 µM)	relative viability ([3]; first compound 0.2 µM)	relative viability ([3]; first compound 0.6325 µM)	relative viability ([3]; first compound 2 µM)
LCLC-103H	0.951	0.984	0.994	1.22	1.11	0.482	0.495	0.523	0.5	0.519	0.721	0.672	0.553	0.53	0.584	0.493	0.411	0.479	0.471	0.472
LOU-NH91	0.473	0.489	0.468	0.441	0.485	0.403	0.414	0.418	0.374	0.382	0.466	0.455	0.481	0.498	0.491	0.427	0.524	0.512	0.506	0.51
LU99A	1.16	1.09	1.09	1.13	0.964	0.206	0.208	0.203	0.193	0.206	0.344	0.282	0.338	0.316	0.315	0.374	0.417	0.393	0.381	0.432
LXF-289	0.951	0.992	1.1	1.02	1.04	0.844	0.832	0.688	0.672	0.772	0.811	0.764	0.793	0.77	0.806	0.589	0.593	0.626	0.656	0.775
NCI-H23	1.02	0.982		0.938	1.21	0.549	0.47	0.437	0.305	0.264	0.5	0.502		0.451	0.485	0.506	0.408	0.417	0.499	0.486
NCI-H322M	1.22	1.28	1.22	1.31	1.25	0.581	0.556	0.544	0.417	0.435	0.431	0.552	0.498	0.478	0.542	0.451	0.458	0.487	0.498	0.5
NCI-H441	0.744		0.545	0.602	0.774	0.3	0.306	0.247	0.261	0.285	0.477	0.426	0.474	0.402	0.595	0.199	0.163	0.189	0.194	0.193
NCI-H460	1.23	1.1	1.07		1.14	0.0594	0.0614	0.0626	0.0649	0.0564	0.508	0.324	0.285	0.292	0.335	0.209	0.153	0.0627	0.103	0.157
NCI-H520	0.6	0.432	0.653	0.578	0.667	0.645	0.69	0.667	0.648	0.533	0.275	0.296	0.275	0.308	0.335	0.261	0.227	0.219	0.218	0.218
NCI-H647	1.28	0.793	0.712	0.709	0.958	0.188	0.183	0.152	0.155	0.141	0.379	0.292		0.324	0.312	0.367	0.354	0.292	0.37	0.348
NCI-H650	0.702	0.859		0.725	0.879	1.12	1.31	1.01	1.06	0.884	0.826	0.922		0.784	0.911	0.385	0.341		0.356	0.391
NCI-H661	0.775	0.735	0.691	0.727	0.878	0.882	0.889	0.821	0.753	0.753	0.399	0.418	0.325	0.339	0.375	0.425	0.406	0.343	0.389	0.37
NCI-H838	0.79	0.769	0.835	0.785	0.818	0.245	0.212	0.229	0.217	0.213	0.311	0.351	0.464	0.4	0.381	0.208	0.174	0.214	0.199	0.18
NCI-H1355	1.1	1.16	1.03	0.958	0.983	1.03	0.946	0.516	0.717	0.615	0.365	0.332	0.287	0.238	0.372	0.303	0.369	0.387	0.476	0.517
NCI-H1437	0.629	0.613	0.475	0.511	0.54	0.271	0.23	0.265	0.203	0.192	0.432	0.399	0.466	0.403	0.493	0.344	0.34	0.292	0.32	0.318
NCI-H1650	0.189	0.19	0.2	0.19	0.222	0.388	0.324	0.314	0.329	0.216	0.539	0.561	0.436	0.505	0.573	0.299	0.274	0.267	0.299	0.353
NCI-H1651	0.811	1.03	0.931	0.885	1.06	0.554	0.618	0.426	0.47	0.278	0.495	0.706	0.628	0.524	0.728	0.563	0.492	0.554	0.5	0.542

Cell Line	relative viability ([1]; first compound 0.02 µM)	relative viability ([1]; first compound 0.06325 µM)	relative viability ([1]; first compound 0.2 µM)	relative viability ([1]; first compound 0.6325 µM)	relative viability ([1]; first compound 2 µM)	relative viability (Trametinib + Pemetrexed; first compound 0.0025 µM)	relative viability (Trametinib + Pemetrexed; first compound 0.007906 µM)	relative viability (Trametinib + Pemetrexed; first compound 0.025 µM)	relative viability (Trametinib + Pemetrexed; first compound 0.07906 µM)	relative viability (Trametinib + Pemetrexed; first compound 0.25 µM)	relative viability ([2]; first compound 0.02 µM)	relative viability ([2]; first compound 0.06325 µM)	relative viability ([2]; first compound 0.2 µM)	relative viability ([2]; first compound 0.6325 µM)	relative viability ([2]; first compound 2 µM)	relative viability ([3]; first compound 0.02 µM)	relative viability ([3]; first compound 0.06325 µM)	relative viability ([3]; first compound 0.2 µM)	relative viability ([3]; first compound 0.6325 µM)	relative viability ([3]; first compound 2 µM)
NCI-H1666	1	0.77	0.542	0.692	0.709	0.881	0.742	0.753	0.695	0.693	0.552	0.322	0.318	0.272	0.26	0.604	0.62	0.634	0.574	0.632
NCI-H1734	0.91	0.851		0.859	1.02	0.418	0.383		0.387	0.355	0.432	0.454		0.466	0.45	0.316	0.372		0.334	0.345
NCI-H1755	0.953	0.889	0.868	0.953	0.87	0.378	0.452	0.411	0.47	0.397	0.405	0.342	0.302	0.365	0.37	0.434	0.463	0.431	0.433	0.427
NCI-H1792	0.784	0.977	0.835		0.889	0.751	0.645	0.363	0.328	0.154	0.247	0.223	0.214		0.275	0.624	0.679	0.656		0.559
NCI-H1915	0.913	1	0.962	1.11	1.15	0.492	0.521	0.313	0.262	0.216	0.973	0.871	0.831	0.961	0.97	0.489	0.511	0.533	0.598	0.721
NCI-H1975	0.431	0.36	0.344	0.322	0.317	0.326	0.284	0.246	0.249	0.226	0.297	0.255	0.251	0.246	0.246	0.623	0.361	0.45	0.442	0.504
NCI-H1993	0.916	1.09	1.09	0.691	0.697	0.511	0.566	0.543	0.543	0.453	0.743	0.772	0.826	0.809	0.804	0.606	0.594	0.656	0.455	1.19
NCI-H2009	1.01	0.963	0.963	1.07	1	1.06	0.794	0.499	0.368	0.37	0.804	0.672	0.682	0.8	0.792	0.189	0.198	0.202	0.198	0.201
NCI-H2023	1.09	0.903	0.268	0.958	1.04	0.205	0.187	0.184	0.189	0.14	0.258	0.17	0.128	0.193	0.181	0.412	0.369		0.45	0.372
NCI-H2085	0.993	1.07	0.995	1.07	1.04	0.752	0.676	0.545	0.528	0.516	0.307	0.427	0.39	0.458	0.534	0.452	0.473	0.508	0.471	0.461
NCI-H2087	0.812	0.815	0.882	0.839	0.836	0.554	0.642	0.468	0.179	0.281	0.942	0.833	0.769	0.793	0.951	0.243	0.178	0.229	0.199	0.237
NCI-H2126	1.19	1.15	1.09	1.16	1.12	0.647	0.553	0.464	0.538	0.428	0.486	0.492	0.431	0.431	0.415	0.325	0.31	0.348	0.319	0.326
NCI-H2228	0.882	0.834		0.887	1.19	0.369	0.301	0.339	0.295	0.208	0.378	0.371		0.327	0.27	0.744	0.572	0.394	0.769	0.906
NCI-H2347	0.976	1.01	0.906	0.615	1	0.425	0.44	0.362	0.302	0.337	0.527	0.704	0.572	0.438	0.658	0.418	0.41	0.398	0.395	0.416
NCI-H2405	0.997	0.874		0.892	1	0.995	0.947	0.464		0.554	0.423	0.399	0.401	0.388	0.41	0.576	0.526	0.524	0.535	0.541
NCI-H3122	0.943	0.986	1	1.06	0.992	0.187	0.183	0.166	0.149	0.149	0.597	0.541	0.5	0.563	0.632	0.137	0.181	0.202	0.183	0.235
